How the values were obtained:
Assay in all cases: relative viability (nuclei count vs DMSO), 5 days (fraction); higher = more cells survive
[1] = test system: NCI-H2023
Summary of the method: (§1)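 Cells from lung cancer lines were seeded into 1536-well plates and, one day later, dosed by pin tool. Treatments were either a single drug or a fixed dose of an anchor drug with five library-drug doses (not always all listed) in √10 steps. After 5 days, nuclei were stained in a one-step fixation (final 0.05% Triton X-100, 1% formaldehyde, 1 ug/ml Hoechst) and counted on 4× images, and relative viability is the treated-to-vehicle nuclei ratio, as the median of duplicate plates.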

[2] = test system: NCI-H460
Summary of the method: as §1

[3] = test system: BEN
Summary of the method: as §1

[4] = test system: LOU-NH91
Summary of the method: as §1

[5] = test system: NCI-H1563
Summary of the method: as §1

[6] = test system: NCI-H1395
Summary of the method: as §1

[7] = test system: PC-3 [JPC-3]
Summary of the method: as §1

[8] = test system: NCI-H2126
Summary of the method: as §1

[9] = test system: LXF-289
Summary of the method: as §1

[10] = test system: NCI-H2170
Summary of the method: as §1

[11] = test system: LU99A
Summary of the method: as §1

[12] = test system: NCI-H1666
Summary of the method: as §1

[13] = test system: NCI-H1915
Summary of the method: as §1

[14] = test system: NCI-H322M
Summary of the method: as §1

[15] = test system: NCI-H23
Summary of the method: as §1

[16] = test system: SK-LU-1
Summary of the method: as §1

[17] = test system: HARA
Summary of the method: as §1

[18] = test system: A-427
Summary of the method: as §1

[19] = test system: NCI-H441
Summary of the method: as §1

[20] = test system: NCI-H1793
Summary of the method: as §1

[21] = test system: LCLC-97TM1
Summary of the method: as §1

COCC1(CO)C(=O)C2CCN1CC2 (centres undefined) [PRIMA-1MET] + CS(=O)(=O)N1CCN(Cc2cc3nc(-c4cccc5[nH]ncc45)nc(N4CCOCC4)c3s2)CC1 [Pictilisib] (partner 1 µM)
relative viability ([1]; first compound 0.2 µM): 0.205
relative viability ([1]; first compound 0.6325 µM): 0.196
relative viability ([1]; first compound 2 µM): 0.222
relative viability ([1]; first compound 6.325 µM): 0.229
relative viability ([1]; first compound 20 µM): 0.221
relative viability ([2]; first compound 0.2 µM): 0.31
relative viability ([2]; first compound 0.6325 µM): 0.359
relative viability ([2]; first compound 2 µM): 0.23
relative viability ([2]; first compound 6.325 µM): 0.357
relative viability ([2]; first compound 20 µM): 0.197
relative viability ([3]; first compound 0.2 µM): 0.608
relative viability ([3]; first compound 0.6325 µM): 0.514
relative viability ([3]; first compound 6.325 µM): 0.521
relative viability ([3]; first compound 20 µM): 0.464
relative viability ([4]; first compound 0.2 µM): 0.573
relative viability ([4]; first compound 0.6325 µM): 0.474
relative viability ([4]; first compound 2 µM): 0.458
relative viability ([4]; first compound 6.325 µM): 0.467
relative viability ([4]; first compound 20 µM): 0.366
relative viability ([5]; first compound 0.2 µM): 0.645
relative viability ([5]; first compound 0.6325 µM): 0.696
relative viability ([5]; first compound 2 µM): 0.632
relative viability ([5]; first compound 6.325 µM): 0.629
relative viability ([5]; first compound 20 µM): 0.345
relative viability ([6]; first compound 0.2 µM): 0.613
relative viability ([6]; first compound 0.6325 µM): 0.458
relative viability ([6]; first compound 2 µM): 0.602
relative viability ([6]; first compound 6.325 µM): 0.518
relative viability ([6]; first compound 20 µM): 0.383
relative viability ([7]; first compound 0.2 µM): 0.681
relative viability ([7]; first compound 0.6325 µM): 0.653
relative viability ([7]; first compound 2 µM): 0.652
relative viability ([7]; first compound 6.325 µM): 0.777
relative viability ([7]; first compound 20 µM): 0.688
relative viability ([8]; first compound 0.2 µM): 0.459
relative viability ([8]; first compound 0.6325 µM): 0.485
relative viability ([8]; first compound 2 µM): 0.418
relative viability ([8]; first compound 6.325 µM): 0.548
relative viability ([8]; first compound 20 µM): 0.488
relative viability ([9]; first compound 0.2 µM): 0.691
relative viability ([9]; first compound 0.6325 µM): 0.743
relative viability ([9]; first compound 2 µM): 0.531
relative viability ([9]; first compound 6.325 µM): 0.717
relative viability ([9]; first compound 20 µM): 0.761
relative viability ([10]; first compound 0.2 µM): 0.312
relative viability ([10]; first compound 0.6325 µM): 0.276
relative viability ([10]; first compound 2 µM): 0.283
relative viability ([10]; first compound 6.325 µM): 0.336
relative viability ([10]; first compound 20 µM): 0.297
relative viability ([11]; first compound 0.2 µM): 0.414
relative viability ([11]; first compound 0.6325 µM): 0.323
relative viability ([11]; first compound 2 µM): 0.386
relative viability ([11]; first compound 6.325 µM): 0.308
relative viability ([11]; first compound 20 µM): 0.154
relative viability ([12]; first compound 0.2 µM): 0.494
relative viability ([12]; first compound 0.6325 µM): 0.335
relative viability ([12]; first compound 2 µM): 0.54
relative viability ([12]; first compound 6.325 µM): 0.415
relative viability ([12]; first compound 20 µM): 0.198
relative viability ([13]; first compound 0.2 µM): 0.712
relative viability ([13]; first compound 0.6325 µM): 0.785
relative viability ([13]; first compound 2 µM): 0.625
relative viability ([13]; first compound 6.325 µM): 0.705
relative viability ([13]; first compound 20 µM): 0.932
relative viability ([14]; first compound 0.2 µM): 0.543
relative viability ([14]; first compound 6.325 µM): 0.492
relative viability ([14]; first compound 20 µM): 0.451
relative viability ([15]; first compound 0.2 µM): 0.361
relative viability ([15]; first compound 0.6325 µM): 0.403
relative viability ([15]; first compound 2 µM): 0.323
relative viability ([15]; first compound 6.325 µM): 0.334
relative viability ([15]; first compound 20 µM): 0.138
relative viability ([16]; first compound 0.2 µM): 0.592
relative viability ([16]; first compound 0.6325 µM): 0.549
relative viability ([16]; first compound 2 µM): 0.357
relative viability ([16]; first compound 6.325 µM): 0.697
relative viability ([16]; first compound 20 µM): 0.142
relative viability ([17]; first compound 0.2 µM): 0.374
relative viability ([17]; first compound 0.6325 µM): 0.417
relative viability ([17]; first compound 6.325 µM): 0.446
relative viability ([17]; first compound 20 µM): 0.403
relative viability ([18]; first compound 0.2 µM): 0.255
relative viability ([18]; first compound 0.6325 µM): 0.53
relative viability ([18]; first compound 2 µM): 0.528
relative viability ([18]; first compound 6.325 µM): 0.378
relative viability ([18]; first compound 20 µM): 0.622
relative viability ([19]; first compound 0.2 µM): 0.504
relative viability ([19]; first compound 0.6325 µM): 0.325
relative viability ([19]; first compound 2 µM): 0.473
relative viability ([19]; first compound 6.325 µM): 0.411
relative viability ([19]; first compound 20 µM): 0.264
relative viability ([20]; first compound 0.2 µM): 0.372
relative viability ([20]; first compound 0.6325 µM): 0.251
relative viability ([20]; first compound 6.325 µM): 0.343
relative viability ([20]; first compound 20 µM): 0.325
relative viability ([21]; first compound 0.2 µM): 0.127
relative viability ([21]; first compound 2 µM): 0.234
relative viability ([21]; first compound 6.325 µM): 0.135
relative viability ([21]; first compound 20 µM): 0.117

Reference: the supplement of paper PMC10307832
